In patent US5128447A, “Synthetic peptide antagonists of neurokinin A, salts thereof and respective preparation processes” (A. Menarini Industrie Farmaceutiche Riunite S.r.l., priority 1989, dated 1992):
Non-standard residues stand in square brackets, D forms with d. Residues, ends and D or L forms follow the SMILES beside them.

Target: T1, neurokinin A receptor (NK-2 receptor) (Rattus norvegicus, UniProt P16610)
T1 sequence (P16610 1-390): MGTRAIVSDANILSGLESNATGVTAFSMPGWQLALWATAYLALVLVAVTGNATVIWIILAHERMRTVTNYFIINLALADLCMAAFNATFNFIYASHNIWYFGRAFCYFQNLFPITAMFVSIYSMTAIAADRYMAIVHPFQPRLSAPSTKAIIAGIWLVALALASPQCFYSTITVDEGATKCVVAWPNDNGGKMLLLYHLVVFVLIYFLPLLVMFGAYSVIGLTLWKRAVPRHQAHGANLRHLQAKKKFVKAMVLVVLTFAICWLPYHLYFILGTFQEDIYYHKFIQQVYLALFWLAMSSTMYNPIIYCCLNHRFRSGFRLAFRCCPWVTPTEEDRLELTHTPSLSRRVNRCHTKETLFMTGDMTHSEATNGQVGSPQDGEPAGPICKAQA
Test: cell-based
Description: The capacity of the peptides described in the present invention of interacting with the neurokinin A receptor as agonists or antagonists was evaluated by means of an in vitro assay using a preparation, in which the biological response produced by tachykinin and related peptides is exclusively determined by the neuro-kinin A receptor (NK-2 receptor). Such a preparation is the isolated vas deferens of rats, where the tachykinins produce a potentiation of the contractions caused by the intramural nerves following an electrical stimulation. The determination of the activity of the peptides in this preparation was carried out as described by Rovero et al. (Neuropeptides 10, 355, 1987). The agonistic activity of the peptides assayed is expressed as pD2, which represents the […] of the molar concentration of agonist which produces 50% of the maximum effect. […] The pD2 were calculated according to Van Rossum (Arch. Int. Pharmacodyn. 143, 249, 1963), and the pA 2 were calculated from the analysis of the Schild plot (O. Arunlakshana and H. O. Schild, Br. J. Pharmacol., 14, 48, 1959).
The agonists produce a potentiation of the contractions caused by the nerve of the isolated vas deferens of rats. The antagonistic activity is evaluated as the capacity of the product to produce a parallel displacement towards the right of the concentration/response curve of neurokinin A after a contact time of 15 minutes.

Compound: CSCC[C@H](NC(=O)[C@H](CC(C)C)NC(=O)CNC(=O)[C@@H](NC(=O)[C@H](Cc1ccccc1)NC(=O)[C@H](CO)NC(=O)[C@@H](N)CC(=O)O)C(C)C)C(N)=O [NKA(4-10), reference compound]
- EC50: 1050 nM

Compound: CC(C)[C@H](NC(=O)[C@@H](Cc1c[nH]c2ccccc12)NC(=O)[C@H](Cc1ccc(O)cc1)NC(=O)[C@H](CC(=O)O)NC(=O)[C@@H](N)CCCNC(=N)N)C(=O)N[C@H](Cc1c[nH]c2ccccc12)C(=O)N[C@H](Cc1c[nH]c2ccccc12)C(=O)N[C@@H](CCCNC(=N)N)C(N)=O [H-Arg-Asp-Tyr-DTrp-Val-DTrp-DTrp-Arg-NH2] (H-RDY[dW]V[dW][dW]R-NH2)
- Kb: 316 nM

Compound: CC(C)[C@H](NC(=O)[C@@H](Cc1c[nH]c2ccccc12)NC(=O)[C@H](Cc1ccc(O)cc1)NC(=O)[C@H](CC(=O)O)NC(=O)[C@@H](N)[C@@H](C)O)C(=O)N[C@H](Cc1c[nH]c2ccccc12)C(=O)N[C@H](Cc1c[nH]c2ccccc12)C(=O)N[C@@H](CCCNC(=N)N)C(N)=O [H--Thr--Asp--Tyr--DTrp--Val--DTrp--DTrp--Arg--NH2] (H-TDY[dW]V[dW][dW]R-NH2)
- Kb: 251 nM

Compound: CC(C)[C@H](NC(=O)[C@@H](Cc1c[nH]c2ccccc12)NC(=O)[C@H](Cc1ccc(O)cc1)NC(=O)[C@@H](N)CC(=O)O)C(=O)N[C@H](Cc1c[nH]c2ccccc12)C(=O)N[C@H](Cc1c[nH]c2ccccc12)C(=O)N[C@H](Cc1c[nH]c2ccccc12)C(N)=O [H-Asp-Tyr-DTrp-Val-DTrp-DTrp-DTrp-NH2] (H-DY[dW]V[dW][dW][dW]-NH2)
- Kb: 155 nM

Compound: CC(C)[C@H](NC(=O)[C@@H](Cc1c[nH]c2ccccc12)NC(=O)[C@H](Cc1ccc(O)cc1)NC(=O)[C@H](CC(=O)O)NC(=O)[C@@H](N)CCCNC(=N)N)C(=O)N[C@H](Cc1c[nH]c2ccccc12)C(=O)N[C@H](Cc1c[nH]c2ccccc12)C(=O)N[C@@H](Cc1ccccc1)C(N)=O [H--Arg--Asp--Tyr--DTrp--Val--DTrp--DTrp--Phe--NH2] (H-RDY[dW]V[dW][dW]F-NH2)
- Kb: 575 nM

Compound: CC(C)[C@H](NC(=O)[C@@H](Cc1c[nH]c2ccccc12)NC(=O)[C@H](Cc1ccc(O)cc1)NC(=O)[C@@H](N)CC(=O)O)C(=O)N[C@H](Cc1c[nH]c2ccccc12)C(=O)N[C@H](Cc1c[nH]c2ccccc12)C(=O)N[C@@H](CCCNC(=N)N)C(N)=O [H--Asp--Tyr--DTrp--Val--DTrp--DTrp--Arg--NH2] (H-DY[dW]V[dW][dW]R-NH2)
- Kb: 251 nM

Compound: CC(C)[C@H](NC(=O)[C@@H](Cc1c[nH]c2ccccc12)NC(=O)[C@H](Cc1ccc(O)cc1)NC(=O)[C@H](CC(=O)O)NC(=O)[C@@H](N)CCCCN)C(=O)N[C@H](Cc1c[nH]c2ccccc12)C(=O)N[C@H](Cc1c[nH]c2ccccc12)C(=O)N[C@@H](CCCNC(=N)N)C(N)=O [H--Lys--Asp--Tyr--DTrp--Val--DTrp--DTrp--Arg--NH2] (H-KDY[dW]V[dW][dW]R-NH2)
- Kb: 339 nM

Compound: CSCC[C@H](NC(=O)[C@@H](Cc1c[nH]c2ccccc12)NC(=O)[C@@H](Cc1c[nH]c2ccccc12)NC(=O)[C@@H](NC(=O)[C@@H](Cc1c[nH]c2ccccc12)NC(=O)[C@H](Cc1ccc(O)cc1)NC(=O)[C@H](CC(=O)O)NC(=O)[C@@H](N)CCCNC(=N)N)C(C)C)C(N)=O [H--Arg--Asp--Tyr--DTrp--Val--DTrp--DTrp--Met--NH2] (H-RDY[dW]V[dW][dW]M-NH2)
- Kb: 251 nM

Compound: CC(C)[C@H](NC(=O)[C@@H](Cc1c[nH]c2ccccc12)NC(=O)[C@H](Cc1ccc(O)cc1)NC(=O)[C@@H](N)CC(=O)O)C(=O)N[C@H](Cc1c[nH]c2ccccc12)C(=O)N[C@H](Cc1c[nH]c2ccccc12)C(=O)N[C@@H](Cc1ccc(O)cc1)C(N)=O [H--Asp--Tyr--DTrp--Val--DTrp--DTrp--Tyr--NH2] (H-DY[dW]V[dW][dW]Y-NH2)
- Kb: 191 nM
